Earlier results in patent publication US20100239682A1, “COLONIC DELIVERY OF ANTIMICROBIAL AGENTS” (priority 2007, published 2010).

Tests used:
Enterobacteriaceae = details: human volunteers, oral, different dosages
[1] = human volunteers, high doses

## colistin [Colimycin]
Enterobacteriaceae
  effectiveness at achieving selective decontamination: only high dosages of Colimycin were effective
[1]
  tolerance at the gastric level: very poorly tolerated
